PMC7995547, “ω‐Imidazolyl‐alkyl derivatives as new preclinical drug candidates for treating non‐alcoholic steatohepatitis” (Physiological Reports, 2021)
Several values for one entry are separate records, joined by “and”; a condition that tells them apart may be missing. Equal entries are not always repeated.

What was measured:
[1] = system: HFD‐induced NASH rat model (liver); assay: Area of connective tissue in the liver (Mallory‐Azan staining), NASH rat model; format: in vivo, Wistar rats
Procedure: (§1) Studies were done using Wistar rats of female sex by the Institute of Pharmacology and Biochemistry at Minsk. The animals were 80–90 days old and weighed 180–200 g. They had free access to a liquid Lieber‐DeCarli (LDC) diet (Lieber et al., 2004) and were housed under standard conditions meaning a 12‐h light/dark cycle at 22 ± 2°C and 55 ± 5% humidity.
(§2) Group 1 was designated as the first control group; it was fed a normal standard solid diet. Group 2, as the second control group, was fed a standard amount of fat as a part of the liquid “physiological,” non‐high fat LDC diet. All other groups received the liquid ‘disease‐causing’ LDC diet (Table 2), including a high content of unsaturated fatty acids.
(§3) Both LDC diets were in a liquid form as produced by ssniff‐Spezialdiäten GmbH, Soest (Germany). The feed was provided over the entire experimental period of 16 weeks; however, the corresponding experimental substances were only administered in the last four weeks (Figure 3).
(§4) The experimental substances I‐ol, I‐an, and UDCA were dissolved in a 0.8% aqueous HPMC gel to obtain the following concentrations: (1) I‐ol at 0.4, 4, and 40 mg/kg body weight (b.w.), (2) I‐an at 0.4, 4, and 40 mg/kg b.w., and (3) UDCA at 40 mg/kg b.w. The Group‐2 and −3 rats received only HPMC as placebo. Each test encompassed 6–8 rats that were put up in a separate cage. The rats were fed ad libitum, and their intake per cage was controlled daily. In order to ensure an exact daily reproducible dosage, the experimental substances or only HPMC was administered intragastrically via oral gavage. Basically, the drug therapy of a chronic disease is the more efficient the higher the adherence of the affected patients. This is generally higher with peroral administration than with any other form of application. At the end of the experiment, the animals were sacrificed under fasting conditions, by aorta dissection and exsanguination, after anesthetizing with an intraperitoneal injection of 5% pentobarbital solution.
Liver tissue sections were subject to the Mallory‐Azan (Heidenhain Azan) staining method for visualizing the connective tissues. This method was a modification of the original Mallory staining protocol, wherein azocarmin with a mixture of aniline blue and orange G was used. In this method, the collagen tissue and basophilic granules turn blue, the muscle tissue and acidophilic granules turn orange to red, and the cell nuclei and cytoplasm turn red. Elastic fibers remain unstained; however, they might turn yellow or pink. The proportion of positively stained liver tissue to the total area of the histological slide was determined quantitatively.

[2] = system: HFD‐induced NASH rat model (serum); assay: Liver enzyme activities and bilirubin in serum, NASH rat model; format: in vivo, Wistar rats; details: for Decrease in serum bilirubin level compared to disease group / Decrease in γ‐GT enzymatic activity compared to disease group / Reduction of the effect of HFD on γ‐GT activity: UDCA 40 mg/kg b.w.; for Decrease in γ‐GT enzymatic activity compared to disease group / Reduction of the effect of HFD on γ‐GT activity: average over doses (I‐ol, I‐an); for Decrease in ALT enzymatic activity compared to disease group / Reduction of the effect of HFD on ALT activity: highest concentrations (40 mg/kg b.w.); for Reduction of the effect of HFD on ALT activity: b87: dose not stated; for Decrease in AP enzymatic activity compared to disease group / Decrease in AST enzymatic activity compared to disease group: number: highest concentration (40 mg/kg b.w.), words: compound overall
Procedure: as §1, §2, §3, §4
The activities of the liver enzymes aspartate aminotransferase (AST), alanine aminotransferase (ALT), alkaline phosphatase (AP), and γ‐glutamyl transferase (γ‐GT) as well as bilirubin and triglyceride levels in the serum were determined as described by the instructions of BIO‐LA‐tests kit (Erba Lachema, Brno, Czech Republic).

[3] = lowest concentration (0.4 mg/kg b.w.)
[4] = serum, highest concentration (40 mg/kg b.w.)

SMILES	Decrease in area of connective tissue in the liver compared to disease group [1, 3] [%]	Reduction of the effect of HFD on area of connective tissue in the liver [1, 3] [%]	Dose dependence of the effect on γ‐GT activity ([2]; 0.4, 4, 40 mg/kg b.w.)	Serum bilirubin below the levels measured in the disease group and the two control groups ([2]; average over doses)	Decrease in serum bilirubin level compared to disease group ([2]; average over doses)	Decrease in γ‐GT enzymatic activity compared to disease group ([2]; serum) [%]	Reduction of the effect of HFD on γ‐GT activity ([2]; serum) [%]	Decrease in ALT enzymatic activity compared to disease group ([2]; serum) [%]	Reduction of the effect of HFD on ALT activity ([2]; serum)	Decrease in AP enzymatic activity compared to disease group ([2]; serum)	Decrease in AST enzymatic activity compared to disease group ([2]; serum)	Effect on area of connective tissue in the liver (in words) ([1]; compound overall)	Dose dependence of the effect on ALT activity ([2]; 0.4, 4, 40 mg/kg b.w.)	Dose dependence of the effect on AP activity ([2]; 0.4, 4, 40 mg/kg b.w.)	Dose dependence of the effect on AST activity ([2]; 0.4, 4, 40 mg/kg b.w.)	Reduction of the effect of HFD on AP activity [2, 4] [%]	Reduction of the effect of HFD on AST activity [2, 4]
OCCCCCCCCCCCCn1ccnc1 [I‐ol, 12‐imidazolyl‐1‐dodecanol]	28	72	moderate but very highly significant (p < 0.001), linear, dose‐dependent effect	more than 10%	14%	34	84	16	55% and ~70%	no therapeutic effect	no therapeutic effect						
CCCCCCCCCCCCn1ccnc1 [I‐an, 1‐imidazolyldodecane]					no therapeutic effect	35	86	20	66% and ~70%	21%	21%	no therapeutic effect	weak, significant (p < 0.05), linear, dose‐dependent effect	weak but significant (p < 0.05), linear, dose‐dependent effect	moderate, very highly significant (p < 0.001), linear, dose‐dependent effect	89	92% and 90%
